Patent publication US9422255B2, “S-imino-S-oxo-iminothiazine compounds as BACE inhibitors, compositions, and their use” (Merck Sharp & Dohme Corp., priority 2013, dated 2016)

Key:
[1] = molecular target: purified human autoBACE-2 (Homo sapiens, UniProt Q9Y5Z0); experiment: BACE-2 Assay (BACE-HTRF assay); format: biochemical; conditions: Ki calculated from IC50 using the Cheng-Prusoff equation; QSY7-EISEVNLDAEFC-Eu-amide substrate, pH 5.0
Experimental: Inhibitor IC50s at purified human autoBACE-2 are determined in a time-resolved endpoint proteolysis assay that measures hydrolysis of the QSY7-[…]-Eu-amide FRET peptide substrate (BACE-HTRF assay). […] DMSO is present at 5% final concentration in the assay. Following laser excitation of sample wells at 320 nm, the fluorescence signal at 620 nm is collected for 400 ms following a 50 μs delay on a RUBYstar HTRF plate reader (BMG Labtechnologies). Raw RFU data is normalized to maximum (1.0 nM BACE/DMSO) and minimum (no enzyme/DMSO) RFU values. […] The Ki values are calculated from the IC50 using the Cheng-Prusoff equation.

[2] = molecular target: soluble human BACE1 catalytic domain (Homo sapiens (Human), UniProt P56817); experiment: BACE1 HTRF FRET Assay; format: biochemical; conditions: Ki calculated from IC50 using the Cheng-Prusoff equation; QSY7-APPswe-Eu substrate, pH 5.0; read-out: BACE 1 Ki
Chain of soluble human BACE1 catalytic domain (P56817 75-416): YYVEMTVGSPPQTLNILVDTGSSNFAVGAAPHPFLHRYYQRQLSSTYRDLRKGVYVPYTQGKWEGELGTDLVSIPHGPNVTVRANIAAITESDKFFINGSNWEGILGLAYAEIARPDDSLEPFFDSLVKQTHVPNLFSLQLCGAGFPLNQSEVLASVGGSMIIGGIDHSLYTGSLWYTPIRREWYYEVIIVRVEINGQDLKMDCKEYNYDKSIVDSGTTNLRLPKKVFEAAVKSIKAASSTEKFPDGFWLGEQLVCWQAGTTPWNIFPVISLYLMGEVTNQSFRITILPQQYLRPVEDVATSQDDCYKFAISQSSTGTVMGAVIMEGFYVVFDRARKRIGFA
Excerpt: Na^+-Acetate pH 5.0; 1% Brij-35; Glycerol; Dimethyl Sulfoxide (DMSO); Recombinant human soluble BACE1 catalytic domain (>95% pure); APP Swedish mutant peptide substrate (QSY7-APP^swe-Eu): QSY7-EISEVNLDAEFC-Europium-amide.
A homogeneous time-resolved FRET assay can be used to determine IC50 values for inhibitors of the soluble human BACE1 catalytic domain. This assay monitors the increase of 620 nm fluorescence that resulted from BACE1 cleavage of an APPswedish APP^swe mutant peptide FRET substrate (QSY7-EISEVNLDAEFC-Europium-amide). This substrate contains an N-terminal QSY7 moiety that serves as a quencher of the C-terminal Europium fluorophore (620 nm Em). In the absence of enzyme activity, 620 nm fluorescence is low in the assay and increased linearly over 3 hours in the presence of uninhibited BACE1 enzyme Inhibition of BACE1 cleavage of the QSY7-APP^swe-Eu substrate by inhibitors is manifested as a suppression of 620 nm fluorescence.
Varying concentrations of inhibitors at 3× the final desired concentration in a volume of 10 ul are preincubated with purified human BACE1 catalytic domain (3 nM in 10 μl) for 30 minutes at 30° C. in reaction buffer containing 20 mM Na-Acetate pH 5.0, 10% glycerol, 0.1% Brij-35 and 7.5% DSMO. […]

Chain of purified human autoBACE-2 (Q9Y5Z0 63-518 limits assumed): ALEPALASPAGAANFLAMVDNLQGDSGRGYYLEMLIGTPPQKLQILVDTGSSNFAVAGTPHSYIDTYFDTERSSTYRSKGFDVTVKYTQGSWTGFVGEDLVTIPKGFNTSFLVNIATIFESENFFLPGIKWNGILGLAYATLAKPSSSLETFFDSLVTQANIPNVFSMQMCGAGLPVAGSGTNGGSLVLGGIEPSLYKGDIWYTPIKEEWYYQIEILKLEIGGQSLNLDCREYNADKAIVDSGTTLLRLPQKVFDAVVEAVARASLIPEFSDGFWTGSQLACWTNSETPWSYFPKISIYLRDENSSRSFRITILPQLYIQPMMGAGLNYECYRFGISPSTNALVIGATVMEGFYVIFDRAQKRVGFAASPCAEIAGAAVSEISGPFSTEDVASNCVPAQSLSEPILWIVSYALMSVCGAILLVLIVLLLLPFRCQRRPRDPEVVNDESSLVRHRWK

For `CN=S1(=O)C[C@@](C)(c2cc(NC(=O)c3ccc(Cl)cn3)ccc2F)NC(=N)[C@@]1(C)c1ccc(F)cc1` (some centres unmarked) [Example 10a], the Ki [1] was 0.106 µM and the Ki [2] was 0.29 µM.
